We go through four molecules from publication PMC8175309, “Translational CNS Steady-State Drug Disposition Model in Rats, Monkeys, and Humans for Quantitative Prediction of Brain-to-Plasma and Cerebrospinal Fluid-to-Plasma Unbound Concentration Ratios” (The AAPS Journal, 2021).

One may read the efflux ratio as a quotient of directional permeabilities that is used to spot active efflux.

In one data set the target is MDR1 (Homo sapiens, UniProt P08183). Put plainly: in vitro. The settings on record: dog, MDCK-MDR1, pH 7.4. As for the experimental part:
(§1) To the compounds available internally, in vitro efflux ratios for MDR1 and BCRP were determined by the following procedure (Supplemental Table 2). Test compound stock solutions in dimethyl sulfoxide (DMSO) were diluted in transport buffer (Hanks’ balanced salt solution (HBSS) with 10 mM HEPES, pH 7.4) to a concentration of 1 μM (DMSO < 1%) and applied to the apical or basolateral side of a cell monolayer derived from Madin-Darby canine kidney (MDCK)-MDR1 and MDCK-BCRP cells. Permeation of the test compounds from apical to basolateral (A to B) direction or B to A direction was measured in duplicate. The plate was incubated for 1 h in a CO2 incubator at 37±1°C with 5% CO2 at saturated humidity without shaking. In addition, the efflux ratio of each compound was also determined. Test and reference compounds were quantified by LC-MS/MS analysis based on the peak area ratio of analyte/internal standard.
(§2) The apparent permeability coefficient Papp (cm/s) was calculated by using Eq. 1: 1 Papp=dCr/dt×Vr/A×C0 where dCr/dt is the cumulative concentration of the compound in the receiver chamber as a function of time (μM/s); Vr is the volume of the solution in the receiver chamber (0.075 mL on the apical side, 0.25 mL on the basolateral side); A is the surface area for transport, i.e., 0.0804 cm^2 for the area of the monolayer; and C0 is the initial concentration (μM) in the donor chamber.
(§3) The efflux ratio was calculated using Eq. 2: 2 Efflux ratio=Papp,BtoA/Papp,AtoB

The conditions of data set [1]: cited from earlier work.
For the next data set, the target named is T1, BCRP (Homo sapiens, UniProt Q9UNQ0).
T1 sequence (Q9UNQ0 1-655): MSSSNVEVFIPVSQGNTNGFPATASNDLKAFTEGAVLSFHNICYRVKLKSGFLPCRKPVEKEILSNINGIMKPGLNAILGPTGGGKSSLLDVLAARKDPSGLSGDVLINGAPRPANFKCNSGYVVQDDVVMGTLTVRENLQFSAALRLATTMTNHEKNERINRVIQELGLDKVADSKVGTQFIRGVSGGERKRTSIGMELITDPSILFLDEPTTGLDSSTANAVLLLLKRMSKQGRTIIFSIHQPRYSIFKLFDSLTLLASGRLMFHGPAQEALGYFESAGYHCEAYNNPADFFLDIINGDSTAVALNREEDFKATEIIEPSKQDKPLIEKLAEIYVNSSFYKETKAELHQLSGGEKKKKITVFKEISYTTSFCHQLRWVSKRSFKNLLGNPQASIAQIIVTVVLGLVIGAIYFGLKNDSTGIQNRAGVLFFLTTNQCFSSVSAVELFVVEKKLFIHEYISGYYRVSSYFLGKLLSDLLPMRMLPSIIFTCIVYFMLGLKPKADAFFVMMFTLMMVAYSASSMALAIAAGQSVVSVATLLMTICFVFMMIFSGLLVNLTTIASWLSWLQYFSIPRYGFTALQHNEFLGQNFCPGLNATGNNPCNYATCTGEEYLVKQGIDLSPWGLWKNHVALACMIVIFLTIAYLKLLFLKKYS
Kind of data set: in vitro. The settings on record: dog, pH 7.4. The procedure:
as §1, §2, §3

A short description of another data set: in vivo. The settings on record: rat, in vivo. As for the experimental part: The CSF samples collected from cisterna magna in rats were stored at –80°C until analysis by liquid chromatography-tandem mass spectrometry (LC-MS/MS). Before performing the LC-MS/MS analysis, these samples were thawed on ice and mixed with three volumes of acetonitrile. The acetonitrile mixtures were vortexed and centrifuged, and the supernatant was collected. After dilution with mobile phase A (a mixture of 10 mM ammonium formate and formic acid at 100:0.2 (v/v)), the supernatant was injected into the LC-MS/MS system.
To perform correlation analyses between the observed Kp,uu,brain and Kp,uu,CSF, and the model-based prediction of Kp,uu,brain and Kp,uu,CSF, data from literature information were integrated into the internally obtained data for these assessments (Supplemental Table 2) ([17],[22]–[24],[27]–[33]). When only the total concentrations in plasma, CSF, and brain were available, the total concentration ratio in plasma to CSF or brain (Kp,CSF or Kp,brain, respectively) was estimated, followed by calculation of Kp,uu,CSF or Kp,uu,brain based on Eqs.

The conditions of data set [2]: cited from earlier work. This is another data set of the same source.
For data set [3] the following is noted: cited from earlier work. This is another data set of the same source.
Where [4] appears, read: monkey, *9 ref Nagaya et al. (19).
Where [5] appears, read: monkey, *8 ref Uchida et al. (31).

Read-outs that look alike come from different tables or passages of the source.

MDR1, sequence (P08183 whole entry): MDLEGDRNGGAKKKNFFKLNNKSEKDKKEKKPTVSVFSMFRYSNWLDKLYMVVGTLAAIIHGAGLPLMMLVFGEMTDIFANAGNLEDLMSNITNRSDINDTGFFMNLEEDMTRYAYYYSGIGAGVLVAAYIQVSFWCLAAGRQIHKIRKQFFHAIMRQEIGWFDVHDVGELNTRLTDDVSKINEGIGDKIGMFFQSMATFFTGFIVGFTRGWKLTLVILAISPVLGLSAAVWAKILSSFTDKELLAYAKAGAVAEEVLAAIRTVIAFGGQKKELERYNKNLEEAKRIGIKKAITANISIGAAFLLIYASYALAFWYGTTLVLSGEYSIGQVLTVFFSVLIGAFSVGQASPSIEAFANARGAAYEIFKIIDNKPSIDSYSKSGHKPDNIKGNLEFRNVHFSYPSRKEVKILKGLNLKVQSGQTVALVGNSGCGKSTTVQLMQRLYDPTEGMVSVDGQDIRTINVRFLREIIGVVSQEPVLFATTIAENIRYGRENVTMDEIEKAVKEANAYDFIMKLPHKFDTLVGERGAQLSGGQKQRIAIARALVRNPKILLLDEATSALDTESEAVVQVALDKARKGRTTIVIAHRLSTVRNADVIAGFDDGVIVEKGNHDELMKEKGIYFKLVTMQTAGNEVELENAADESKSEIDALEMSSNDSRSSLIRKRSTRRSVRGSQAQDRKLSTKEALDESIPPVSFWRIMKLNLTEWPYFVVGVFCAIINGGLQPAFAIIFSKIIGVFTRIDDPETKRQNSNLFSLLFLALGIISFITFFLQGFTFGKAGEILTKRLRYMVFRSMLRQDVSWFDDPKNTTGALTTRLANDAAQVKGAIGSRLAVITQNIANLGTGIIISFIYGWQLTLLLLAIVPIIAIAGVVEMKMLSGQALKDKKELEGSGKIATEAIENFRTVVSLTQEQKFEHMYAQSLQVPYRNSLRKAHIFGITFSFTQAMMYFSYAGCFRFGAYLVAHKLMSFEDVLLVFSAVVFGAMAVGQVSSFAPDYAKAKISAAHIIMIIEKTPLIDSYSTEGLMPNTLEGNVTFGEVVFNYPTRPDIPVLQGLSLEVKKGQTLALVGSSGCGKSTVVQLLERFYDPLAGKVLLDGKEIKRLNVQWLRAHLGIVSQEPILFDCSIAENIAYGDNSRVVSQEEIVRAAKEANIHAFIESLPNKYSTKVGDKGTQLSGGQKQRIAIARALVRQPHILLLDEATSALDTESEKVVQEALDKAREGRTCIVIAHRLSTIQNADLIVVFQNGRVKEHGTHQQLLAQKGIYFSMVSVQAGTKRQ

As for `Cc1cc(=O)n(-c2ccccc2)n1C` [Antipyrine], the efflux ratio at 1 h, 1 μM amounted to 0.9 at MDR1 and 1 at BCRP. Also, the “Kp,uu,CSF Monkey” value in data set [1] (cynomolgus monkey, in vivo) is recorded as 1.05. Moreover, in data set [1] (cynomolgus monkey, in vivo), the “Kp,uu,brain Monkey” value is given as 0.857. Besides, the values for the Kp uu in the data set “in vivo” (Kp,uu,CSF Rat) and in the data set “in vivo” (Kp,uu,brain Rat) were 0.944 and 0.857, respectively.

In the case of `NC(=O)N1c2ccccc2C=Cc2ccccc21` [Carbamazepine], in data set [2] (*3 ref Summerfield et al. (25)), the “Kp,uu,brain Human” value is reported as 0.55. Moreover, the “Kp,uu,CSF Human” value in data set [2] (*10 ref Gatti et al. (28)) is given as 1.00. Moreover, the results for the efflux ratio at 1 h, 1 μM at MDR1 and at BCRP were 1.3 and 0.9, respectively. In addition, the “Kp,uu,CSF Monkey” value in data set [1] (setting [4]) is recorded as 1.19. Further, in data set [1] (setting [4]), the “Kp,uu,brain Monkey” value is listed as 1.27. For the same molecule, the “Kp,uu,brain Rat” value in data set [3] (*3 ref Summerfield et al. (25)) is listed as 0.39; in data set [3] (*7 ref Kodaira et al. (20)) it was 0.771. The “Kp,uu,CSF Rat” value in data set [3] (*7 ref Kodaira et al. (20)) is 0.535. Besides, the Kp uu in “in vivo” (Kp,uu,CSF Rat) came out at 0.752; in the data set “in vivo” (Kp,uu,brain Rat), 0.8.

As for `CN(C)C(=O)C(CCN1CCC(O)(c2ccc(Cl)cc2)CC1)(c1ccccc1)c1ccccc1` [Loperamide], the efflux ratio at 1 h, 1 μM turned out to be 92 at MDR1 and 0.97 at BCRP. In addition, in data set [1] (setting [5]), the “Kp,uu,brain Monkey” value was 0.04. In addition, the “Kp,uu,brain Rat” value in data set [3] (*3 ref Summerfield et al. (25)) is on record as 0.024; in data set [3] (*4 ref Friden et al. (21)) it was 0.007; in data set [3] (*7 ref Kodaira et al. (20)), 0.00896. The “Kp,uu,CSF Rat” value in data set [3] (*4 ref Friden et al. (21)) was 0.037; in data set [3] (*7 ref Kodaira et al. (20)), 0.038.

With `C=C[C@H]1C[N@@]2CC[C@H]1C[C@@H]2[C@@H](O)c1ccnc2ccc(OC)cc12` [Quinidine], the “Kp,uu,brain Monkey” value in data set [1] (setting [5]) is recorded as 0.0744. In data set [1] (setting [4]), the “Kp,uu,CSF Monkey” value is reported as 0.169 and the “Kp,uu,brain Monkey” value is on record as 0.0658. In addition, the efflux ratio at 1 h, 1 μM at BCRP was 0.9. Further, in data set [3] (*7 ref Kodaira et al. (20)), the “Kp,uu,CSF Rat” value is on record as 0.0911 and the “Kp,uu,brain Rat” value is reported as 0.026. Also, the Kp uu in the data set “in vivo” (Kp,uu,CSF Rat) turned out to be 0.419. For the same molecule, the Kp uu in the data set “in vivo” (Kp,uu,brain Rat) is 0.0359.
